Laboratory results reported in patent US9169199B2, “Cycloalkyl guanidine F1F0-ATPase inhibitors and therapeutic uses thereof” (Lycera Corporation, priority 2010, dated 2015).

How the values were obtained:
[1] = tested on: Ramos cells; assay: Cytotoxicity in Ramos cells; format: cell-based; conditions: Homo sapiens, read-out: Ramos cell EC50
Method: (§1) Compounds in Example 4 above were tested for activity against F1F0-ATPase by measuring ATP synthesis. In addition, the compounds were assessed for cytotoxicity in Ramos cells. Inhibition of ATP synthesis by the F1F0-ATPase and cytotoxicity in Ramos cells were measured according to the procedures described in K. M. Johnson et al. Chemistry & Biology 2005, 12, 485-496.

[2] = molecular target: T1, F1F0-ATPase (Bos taurus, UniProt P13621); assay: Inhibition of ATP synthesis by the F1F0-ATPase; format: biochemical
T1 construct: from tissue
Method: as §1

SMILES	EC50 [1] [µM]	IC50 [2] [µM]
O=C(/N=C(/Nc1cc(F)cc(Cl)c1)N[C@H]1CC[C@H](Nc2ncccn2)CC1)c1ccc(Cl)cc1 [Compound 118]	< 10	< 10
O=C(/N=C(/Nc1cccc(C(F)(F)F)c1)N[C@H]1CC[C@H](Nc2ncccn2)CC1)c1ccc(Cl)cc1 [Compound 119]	< 10	< 10
O=C(/N=C(/Nc1cc(F)cc(Cl)c1)N[C@H]1CC[C@@H](Nc2ncccn2)CC1)c1ccc(F)c(F)c1 [Compound 120]	< 10	< 10
CC1(N/C(=N/C(=O)c2ccc(C(F)(F)F)cc2)N[C@H]2CC[C@H](Nc3ncccn3)CC2)CCCC1 [Compound 121]	< 10	< 10
CC1(N/C(=N/C(=O)c2ccc(Cl)cc2)N[C@H]2CC[C@H](Nc3ncccn3)CC2)CCCC1 [Compound 122]	< 10	< 10
O=C(/N=C(/Nc1cc(F)cc(Cl)c1)N[C@H]1CCCC[C@H]1O)c1ccc(C(F)(F)F)cc1 [Compound 123]	< 10	< 10
O=C(/N=C(/Nc1cc(F)cc(Cl)c1)NC1CCCC(Nc2ncccn2)C1)c1ccc(F)c(F)c1 (stereo not drawn) [Compound 124]	< 10	< 10
CCOC(=O)N[C@H]1CCC[C@@H](N/C(=N\C(=O)c2ccc(F)c(F)c2)Nc2cc(F)cc(Cl)c2)C1 [Compound 125]	< 10	< 10
CCOC(=O)N[C@@H]1CCC[C@@H](N/C(=N\C(=O)c2ccc(F)c(F)c2)Nc2cc(F)cc(Cl)c2)C1 [Compound 126]	< 10	< 10
O=C(/N=C(/Nc1cc(F)cc(Cl)c1)N[C@H]1CCCC[C@H]1O)c1ccc(F)c(F)c1 [Compound 128]	< 10	< 10
O=C(/N=C(/Nc1cc(F)cc(Cl)c1)N[C@H]1CCCC[C@@H]1O)c1ccc(F)c(F)c1 [Compound 129]	< 10	< 10
O=C(/N=C(/Nc1cc(F)cc(Cl)c1)N[C@H]1CC[C@H](NC(=O)C(F)(F)F)CC1)c1ccc(F)c(F)c1 [Compound 130]	< 10	< 10
O=C(/N=C(/Nc1cccc(Cl)c1)N[C@H]1CC[C@H](NC(=O)c2cnccn2)CC1)c1ccc(F)c(F)c1 [Compound 131]	< 10	< 10
Cc1cc(C(=O)N[C@H]2CC[C@H](N/C(=N\C(=O)c3ccc(F)c(F)c3)Nc3cccc(Cl)c3)CC2)ccn1 [Compound 132]	< 10	< 10
O=C(/N=C(/Nc1cccc(Cl)c1)N[C@H]1CC[C@H](NC(=O)c2cccs2)CC1)c1ccc(F)c(F)c1 [Compound 133]	< 10	< 10
O=C(/N=C(/Nc1cccc(Cl)c1)N[C@H]1CC[C@H](NC(=O)c2ccccc2)CC1)c1ccc(F)c(F)c1 [Compound 134]	< 10	< 10
CN(C)C(=O)N[C@H]1CC[C@H](N/C(=N\C(=O)c2ccc(F)c(F)c2)Nc2cc(F)cc(Cl)c2)CC1 [Compound 135]	< 10	< 10
O=C(/N=C(/Nc1cc(F)cc(Cl)c1)N[C@H]1CC[C@H](NC(=O)N2CCOCC2)CC1)c1ccc(F)c(F)c1 [Compound 136]	< 10	< 10
O=C(/N=C(/Nc1cc(F)cc(Cl)c1)N[C@H]1CC[C@H](NC(=O)N2CCCC2)CC1)c1ccc(F)c(F)c1 [Compound 137]	< 10	< 10
CC(C)(C)CN/C(=N/C(=O)c1ccc(F)c(F)c1)N[C@H]1CC[C@H](Nc2ncccn2)CC1 [Compound 138]	< 10	< 10
O=C(/N=C(/Nc1cc(F)cc(Cl)c1)N[C@H]1CC[C@H](NC(=O)c2cccs2)CC1)c1ccc(F)c(F)c1 [Compound 139]	< 10	< 10
O=C(/N=C(/Nc1cc(F)cc(Cl)c1)N[C@H]1CC[C@H](NC(=O)c2ccccc2)CC1)c1ccc(F)c(F)c1 [Compound 140]	< 10	< 10
CC(C)(C)CN/C(=N/C(=O)c1ccc(F)c(F)c1)N[C@H]1CC[C@H](NC(=O)c2cccs2)CC1 [Compound 141]	< 10	< 10
CC(C)(C)CN/C(=N/C(=O)c1ccc(F)c(F)c1)N[C@H]1CC[C@H](NC(=O)c2ccccc2)CC1 [Compound 142]	< 10	< 10
O=C(/N=C(/NC1CCCC1)N[C@H]1CC[C@H](Nc2ncccn2)CC1)c1ccc(Cl)c(F)c1 [Compound 143]	< 10	< 10
CC(C)(C)CN/C(=N/C(=O)c1ccc(Cl)c(F)c1)N[C@H]1CC[C@H](Nc2ncccn2)CC1 [Compound 144]	< 10	< 10
CCOC(=O)NC1CCC(N/C(=N\C(=O)c2ccc(F)c(S(C)(=O)=O)c2)NCc2ccc(F)cc2Cl)CC1 (stereo not drawn) [Compound 145]	> 10	> 10

SMILES	EC50 [1] [µM]	IC50 [2] [µM]
CCOC(=O)NC1CCC(N/C(=N\C(=O)c2ccc(F)c(S(C)(=O)=O)c2)Nc2cc(F)cc(Cl)c2)CC1 (stereo not drawn) [Compound 146]	> 10	> 10
COC(=O)NC1CCC(N/C(=N\C(=O)c2ccc(C)cc2)Nc2cc(F)cc(Cl)c2)CC1 (stereo not drawn) [Compound 147]	< 10	< 10
Cc1ccc(C(=O)/N=C(/Nc2cc(F)cc(Cl)c2)NC2CCC(NC(=O)c3ccccc3)CC2)cc1 (stereo not drawn) [Compound 148]	< 10	< 10
CCOC(=O)NC1CCC(N/C(=N\C(=O)c2ccccc2)Nc2cc(F)cc(Cl)c2)CC1 (stereo not drawn) [Compound 149]	< 10	< 10
COC(=O)NC1CCC(N/C(=N\C(=O)c2ccccc2)Nc2cc(F)cc(Cl)c2)CC1 (stereo not drawn) [Compound 150]	> 10	< 10
O=C(/N=C(/Nc1cc(F)cc(Cl)c1)NC1CCC(NC(=O)c2ccccc2)CC1)c1ccccc1 (stereo not drawn) [Compound 151]	< 10	< 10
CCOC(=O)NC1CCC(N/C(=N\C(=O)c2ccc(OC)cc2)Nc2cc(F)cc(Cl)c2)CC1 (stereo not drawn) [Compound 152]	< 10	< 10
COC(=O)NC1CCC(N/C(=N\C(=O)c2ccc(OC)cc2)Nc2cc(F)cc(Cl)c2)CC1 (stereo not drawn) [Compound 153]	< 10	< 10
COc1ccc(C(=O)/N=C(/Nc2cc(F)cc(Cl)c2)NC2CCC(NC(=O)c3ccccc3)CC2)cc1 (stereo not drawn) [Compound 154]	< 10	< 10
CCOC(=O)NC1CCC(N/C(=N\C(=O)c2cccc(OC)c2)Nc2cc(F)cc(Cl)c2)CC1 (stereo not drawn) [Compound 155]	< 10	< 10
COC(=O)NC1CCC(N/C(=N\C(=O)c2cccc(OC)c2)Nc2cc(F)cc(Cl)c2)CC1 (stereo not drawn) [Compound 156]	< 10	< 10
COc1cccc(C(=O)/N=C(/Nc2cc(F)cc(Cl)c2)NC2CCC(NC(=O)c3ccccc3)CC2)c1 (stereo not drawn) [Compound 157]	< 10	< 10
CCOC(=O)NC1CCC(N/C(=N\C(=O)c2ccc(C)cc2)Nc2cc(F)cc(Cl)c2)CC1 (stereo not drawn) [Compound 158]	< 10	< 10
CCOC(=O)NC1CCC(N/C(=N\C(=O)c2cccc(C)c2)Nc2cc(F)cc(Cl)c2)CC1 (stereo not drawn) [Compound 159]	< 10	< 10
CCOC(=O)NC1CCC(N/C(=N\C(=O)c2ccc(C)c(F)c2)Nc2cc(F)cc(Cl)c2)CC1 (stereo not drawn) [Compound 160]	< 10	< 10
CCOC(=O)NC1CCC(N/C(=N\C(=O)c2ccc(F)c(C)c2)Nc2cc(F)cc(Cl)c2)CC1 (stereo not drawn) [Compound 161]	< 10	< 10
CC(C)(C)OC(=O)NC1CCC(NC(=NC(=O)c2ccc(Cl)cc2)NC2CCC(NC(=O)OC(C)(C)C)CC2)CC1 (stereo not drawn) [Compound 162]	> 10	> 10
O=C(/N=C(/Nc1cc(F)cc(Cl)c1)NC1CCC(NC(=O)N2CCCC2)CC1)c1ccc(Cl)cc1 (stereo not drawn) [Compound 163]	< 10	< 10
O=C(/N=C(/Nc1cc(F)cc(Cl)c1)NC1CCC(NC(=O)c2ccccc2)CC1)c1ccc(Cl)cc1 (stereo not drawn) [Compound 164]	< 10	< 10
CCOC(=O)NC1CCC(N/C(=N\C(=O)c2ccc(Cl)cc2)Nc2cc(F)cc(Cl)c2)CC1 (stereo not drawn) [Compound 165]	< 10	< 10
COC(=O)NC1CCC(N/C(=N\C(=O)c2ccc(Cl)cc2)Nc2cc(F)cc(Cl)c2)CC1 (stereo not drawn) [Compound 166]	< 10	< 10
CC(C)(C)OC(=O)NC1CCC(N/C(=N\C(=O)c2ccc(F)c(F)c2)Nc2cc(F)cc(Cl)c2)CC1 (stereo not drawn) [Compound 167]	< 10	< 10
O=C(/N=C(/Nc1cc(F)cc(Cl)c1)NC1CCC(NC(=O)c2nccs2)CC1)c1ccc(F)c(F)c1 (stereo not drawn) [Compound 168]	< 10	< 10
O=C(/N=C(/Nc1cc(F)cc(Cl)c1)NC1CCC(NC(=O)c2cccnc2)CC1)c1ccc(F)c(F)c1 (stereo not drawn) [Compound 169]	< 10	< 10
O=C(/N=C(/Nc1cc(F)cc(Cl)c1)NC1CCC(NC(=O)c2cscn2)CC1)c1ccc(F)c(F)c1 (stereo not drawn) [Compound 170]	< 10	< 10
O=C(/N=C(/Nc1cc(F)cc(Cl)c1)NC1CCC(NC(=O)c2ccccn2)CC1)c1ccc(F)c(F)c1 (stereo not drawn) [Compound 171]	< 10	< 10
O=C1CCC(N/C(=N\C(=O)c2ccc(C(F)(F)F)cc2)Nc2cc(F)cc(Cl)c2)CC1 [Compound 172]	< 10	< 10
